Measured values from patent US9951060B2, “2-acylaminothiazole derivative or salt thereof” (ASTELLAS PHARMA INC., priority 2014, dated 2018).
Structures can show the parent of a compound that is named as a salt.

Assays:
rat isolated bladder = assay: Test Example 3: effect on electrical field stimulation-induced contraction in rat isolated bladder; details: 10 μM test substance; AUC of contraction, value before treatment = 100%; SD female rat bladder
Procedure: Test Example 3: Effect on Electrical Field Stimulation-Induced Contraction in Rat Isolated Bladder
As an effect on the nerve stimulation-dependent bladder contraction in in vitro, the effect of the Example compounds of the present invention in the electrical field stimulation-induced contraction of the rat isolated bladder was measured by the following method. That is, a bladder specimen having a width of about 2 mm and a length of about 10 mm in the longitudinal direction from the bladder isolated from a Sprague-Dawley (SD) female rat (Japan SLC, Inc.) was prepared. The prepared bladder specimen was suspended in an organ bath filled with 10 mL of a Krebs-Henseleite solution. The Krebs-Henseleite solution was aerated at 95% 02 and 5% CO2, and kept at 37° C. After carrying out stabilization at an initial tension of 1 g, the contraction was caused twice with 60 mM KCl. After stabilization of the specimen with a Krebs-Henseleite solution, the contraction was caused by carrying out electrical field stimulation at 20 V with an electrical stimulation device (Nihon Kohden) (a stimulation frequency of 8 Hz, a pulse width of 0.3 msec, and a stimulation time of 10 seconds). By repeating the transmural electrical stimulation at an interval of 2 minutes, a voltage was adjusted to obtain a contraction height of approximately 50% of the contractile response at 20 V. After the contraction by electrical field stimulation had been stabilized, 10 μL of the test substances dissolved in 100% dimethyl sulfoxide in advance (final concentrations of 3 μM, 10 μM, and 30 μM) was added thereto. The test substances were cumulatively administered at the following concentrations after the low-concentration contractile response had been stabilized. The response was taken into a personal computer through a PowerLab (registered trademark) (AD Instruments, Inc.), and analyzed by LabChart (registered trademark) (AD Instruments, Inc.). When the area under the response (area under curve, AUC) in each contraction response was calculated and the value before treatment with the test substance was taken as 100%, the enhancement rate (% of pre) of the isolated bladder contractions after treatment with the test substance was calculated.

[1] = test system: pelvic nerve stimulation-induced elevation of intravesical pressure; assay: Test Example 4: effect on pelvic nerve stimulation-induced elevation of intravesical pressure in anesthetized rats; format: in vivo, rat; details: 3 mg/kg intravenous; maximum effect within one hour; anesthetized SD female rats; pre-treatment = 100%
Procedure: Test Example 4: Effect on Pelvic Nerve Stimulation-Induced Elevation of Intravesical Pressure in Anesthetized Rats
The effect of the Example compounds of the present invention in the pelvic nerve electrical stimulation-induced elevation of intravesical pressure using rats as an action of nerve stimulation-dependent bladder contraction in vivo was measured by the following method. That is, SD female rats (Japan SLC, Inc.) were used and its lower abdomen was dissected at the midline under pentobarbital anesthesia (50 mg/kg ip). After ligating and cutting the ureter on both sides, a cannula (PE-50) for measuring the intravesical pressure was inserted into the bladder from the external urethral opening and fixed by a clip. After injecting about 200 μL of saline through the cannula that had been inserted into the bladder, the other side was connected to a pressure transducer to measure the intravesical pressure. Under a stereoscopic microscope observation, the pelvic nerve in the vicinity of the bladder was peeled and an electrode for nerve stimulation (unique Medical) was placed. The abdominal cavity was filled with mineral oil (MP BIOMEDICALS). After placing in a post-operative stabilization period, the pelvic nerve was subjected to electrical stimulation (stimulation voltage: 10 V, stimulation frequency: 8 Hz, pulse width: 0.3 msec, and stimulation time: 10 seconds) to elicit the elevation of intravesical pressure, using an electrical stimulator (Nihon Kohden). By repeating the electrical stimulation at an interval of 2 minutes while adjusting the voltage, the voltage was adjusted to elicit about 50% to 70% elevation of intravesical pressure elicited at 10 V. Thereafter, by repeating the electrical stimulation at an interval of 10 minutes, the increase in the intravesical pressure by electrical stimulation was stabilized three times or more, and the test substance (an administration amount of 3 mg/kg) was then administered from the catheter detained in the vein at a volume of 1 mL/kg, thus measuring an effect of the elevation of the intravesical pressure of the test substance for 1 hour. The test substance was dissolved in water supplemented with 10% dimethylsulfoxide and 10% Cremophor.
The response was applied to a personal computer through a PowerLab (registered trademark) and analyzed by LabChart (registered trademark). The AUC of each elevation of the intravesical pressure was calculated, the intravesical pressure elevation rate (% of pre) after the treatment with the test substance was calculated by taking an average value of the values measured three times before the treatment with the test substance as 100%, and the maximum effect during a period within one hour after administration of the compound was considered as the effect of the test substance.
The elevation rates (% of pre) of the intravesical pressure when some Example compounds were administered at 3 mg/kg are shown in Table 4.

[2] = target: human muscarinic M3 receptor (Homo sapiens, UniProt P20309)
Chain of human muscarinic M3 receptor (P20309 whole entry): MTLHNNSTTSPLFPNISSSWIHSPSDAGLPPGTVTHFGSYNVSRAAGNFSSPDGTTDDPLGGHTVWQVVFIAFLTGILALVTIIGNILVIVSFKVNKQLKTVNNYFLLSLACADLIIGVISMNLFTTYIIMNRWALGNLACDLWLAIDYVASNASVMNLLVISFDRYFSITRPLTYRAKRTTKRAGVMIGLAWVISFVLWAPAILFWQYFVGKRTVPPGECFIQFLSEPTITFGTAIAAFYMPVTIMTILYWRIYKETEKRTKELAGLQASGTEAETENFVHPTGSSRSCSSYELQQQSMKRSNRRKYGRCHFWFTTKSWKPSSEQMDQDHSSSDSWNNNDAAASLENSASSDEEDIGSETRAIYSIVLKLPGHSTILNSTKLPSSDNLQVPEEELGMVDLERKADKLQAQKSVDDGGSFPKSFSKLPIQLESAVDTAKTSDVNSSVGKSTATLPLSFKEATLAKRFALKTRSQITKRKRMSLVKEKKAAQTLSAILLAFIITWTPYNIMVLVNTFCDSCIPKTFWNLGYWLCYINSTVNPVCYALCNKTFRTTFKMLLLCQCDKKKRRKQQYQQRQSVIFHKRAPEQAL

Structure (SMILES) | Enhancement rate (% of pre) of isolated bladder contractions (rat isolated bladder) | Increase rate (% of pre) of intravesical pressure [1] | muscarinic M3 receptor-positive allosteric modulator activity, 1 μM (-fold shift) [2] | muscarinic M3 receptor-positive allosteric modulator activity, 10 μM (-fold shift) [2]
C[C@@H]1CCCN1Cc1sc(NC(=O)c2cnc(N3CCN(CCC(=O)O)C[C@H]3C)cn2)nc1-c1cc(C(F)(F)F)cs1 [Example 3, 3-[(3R)-3-methyl-4-{5-[(5-{[(2R)-2-methylpyrrolidin-1-yl]methyl}-4-[4-(trifluoromethyl)thiophen-2-yl]-1,3-thiazol-2-yl)carbamoyl]pyrazin-2-yl}piperazin-1-yl]propanoic acid dihydrochloride] | 152 % of pre | 251 % of pre | 101 -fold shift | 253 -fold shift
COc1ccc(-c2nc(NC(=O)c3cnc(N4CCN(CCC(=O)O)[C@@H](C)C4)cn3)sc2CN2CCC[C@H]2C)cc1C(F)(F)F [Example 10] | 161 % of pre | 145 % of pre | 21 -fold shift | 87 -fold shift
C[C@@H]1CCCN1Cc1sc(NC(=O)c2cnc(N3CCN(CCC(=O)O)CC3)cn2)nc1-c1cc(Cl)cc(C(F)(F)F)c1 [Example 11] | 123 % of pre | 132 % of pre | 33 -fold shift | 226 -fold shift
C[C@@H]1CCCN1Cc1sc(NC(=O)c2cnc(N3CCN(CC(=O)O)CC3)cn2)nc1-c1cc(Cl)cc(C(F)(F)F)c1 [Example 13] | 126 % of pre | 132 % of pre | 43 -fold shift | 326 -fold shift
C[C@@H]1CCCN1Cc1sc(NC(=O)c2cnc(N3CCN(CCC(=O)O)CC3)cn2)nc1-c1ccc(Cl)c(C(F)(F)F)c1 [Example 15] | 124 % of pre | 142 % of pre | 31 -fold shift | 159 -fold shift
C[C@@H]1CCCN1Cc1sc(NC(=O)c2cnc(N3CCN(CCCC(=O)O)CC3)cn2)nc1-c1cc(F)cc(C(F)(F)F)c1 [Example 21] | 141 % of pre | 155 % of pre | 25 -fold shift | 149 -fold shift
CC[C@@H]1CCCN1Cc1sc(NC(=O)c2cnc(N3CCN(CCC(=O)O)C[C@@H]3C)cn2)nc1-c1cc(Cl)cs1 [Example 28] | 123 % of pre | 184 % of pre | 36 -fold shift | 108 -fold shift
C[C@@H]1CCCN1Cc1sc(NC(=O)c2cnc(N3CCN(CCC(=O)[O-])CC3)cn2)nc1-c1cc(C#N)cc(C(F)(F)F)c1.[Na+] [Example 34] | 137 % of pre | 134 % of pre | – | –
CC[C@@H]1CCCN1Cc1sc(NC(=O)c2cnc(N3CCN(CCC(=O)O)CC3)cn2)nc1-c1ccc(OC)c(C(F)(F)F)c1 [Example 42] | 158 % of pre | 149 % of pre | 39 -fold shift | 141 -fold shift
COc1c(Cl)cc(-c2nc(NC(=O)c3cnc(N4CCN(CCC(=O)O)CC4)cn3)sc2CN2CCC[C@H]2C)cc1Cl [Example 43] | 179 % of pre | 125 % of pre | 76 -fold shift | 224 -fold shift
Cc1cc(OC(F)(F)F)cc(-c2nc(NC(=O)c3cnc(N4CCN(CCC(=O)O)CC4)cn3)sc2CN2CCC[C@H]2C)c1 [Example 46] | 132 % of pre | 126 % of pre | 29 -fold shift | 199 -fold shift
Cc1cc(OC(F)(F)F)cc(-c2nc(NC(=O)c3cnc(N4CCN(C(C)C(=O)O)CC4)cn3)sc2CN2CCC[C@H]2C)c1 (some centres unmarked) [Example 48] | 143 % of pre | 121 % of pre | 27 -fold shift | 113 -fold shift
C[C@@H]1CCCN1Cc1sc(NC(=O)c2cnc(N3CCN(CCC(=O)O)CC3)cn2)nc1-c1cc(F)cc(C(F)(F)F)c1 [Example 49] | 153 % of pre | 172 % of pre | 67 -fold shift | 224 -fold shift
C[C@@H]1CCCN1Cc1sc(NC(=O)c2cnc(N3CCN(CCC(=O)O)CC3)cn2)nc1-c1cc(Cl)cs1 [Example 50] | 183 % of pre | 207 % of pre | 108 -fold shift | 190 -fold shift
C[C@@H]1CCCN1Cc1sc(NC(=O)c2cnc(N3CCN(CC(=O)O)CC3)cn2)nc1-c1cc(Cl)cs1 [Example 51] | 151 % of pre | 223 % of pre | 102 -fold shift | 287 -fold shift
COc1cc(-c2nc(NC(=O)c3cnc(N4CCN(CCC(=O)O)CC4)cn3)sc2CN2CCC[C@H]2C)cc(C(F)(F)F)c1 [Example 52] | 132 % of pre | 129 % of pre | 36 -fold shift | 196 -fold shift
C[C@@H]1CCCN1Cc1sc(NC(=O)c2cnc(N3CCN(CCC(=O)O)CC3)cn2)nc1-c1ccc(F)c(C(F)(F)F)c1 [Example 60] | 144 % of pre | 130 % of pre | 33 -fold shift | 235 -fold shift
CCC[C@@H]1CCCN1Cc1sc(NC(=O)c2cnc(N3CCN(CCC(=O)[O-])CC3)cn2)nc1-c1cccc(C(F)(F)F)c1.[Na+] [Example 124] | 132 % of pre | 143 % of pre | – | –
